Non-standard residues stand in square brackets, D forms with d. Residues, ends and D or L forms follow the SMILES beside them. *: point of attachment. Benzoyl(4-OPh(4-CONH2)) = NC(=O)c1ccc(Oc2ccc(C(=O)*)cc2)cc1; Benzenesulfonyl(4-OPh) = O=S(=O)(c1ccc(Oc2ccccc2)cc1)*; Benzenesulfonyl(4-Ph) = O=S(=O)(c1ccc(-c2ccccc2)cc1)*; X1 = O=C(CCCCS(=O)(=O)c1ccc(Oc2ccccc2)cc1)*; Benzoyl(4-OPh) = O=C(c1ccc(Oc2ccccc2)cc1)*; X2 = O=C(c1ccc(Oc2ccc(F)cc2)cc1)*; NMeI = CC[C@H](C)[C@H](NC)C(=O)O; NMeE = CN[C@@H](CCC(=O)O)C(=O)O; NMeL = CN[C@@H](CC(C)C)C(=O)O; NMeM = CN[C@@H](CCSC)C(=O)O; NMeV = CN[C@H](C(=O)O)C(C)C; β3hP = O=C(O)C[C@@H]1CCCN1; Orn = NCCC[C@H](N)C(=O)O; Dab = NCC[C@H](N)C(=O)O; Dap = NC[C@H](N)C(=O)O; Ahx = NCCCCCC(=O)O; Ava = NCCCCC(=O)O; GABA = NCCCC(=O)O; βAla = NCCC(=O)O
Experiments:
Homo sapiens = species: Homo sapiens; experiment: Selectivity ratio of IC50 for recombinant human MMP12 to IC50 for recombinant human MMP2
Collagenase 3 = Collagenase 3 (Homo sapiens, UniProt P45452)
[1] = biological target: 72 kDa type IV collagenase (Homo sapiens, UniProt P08253)
[2] = biological target: Macrophage metalloelastase (Homo sapiens, UniProt P39900)
[3] = biological target: Matrix metalloproteinase-14 (Homo sapiens, UniProt P50281); experiment: Inhibition of recombinant human MMP14 using MOCAc-Lys-Pro-Leu-Gly-Leu-A2pr(Dnp)-Ala-Arg-NH2 as substrate preincubated for 15 mins followed by substrate addition by fluroscence based assay
Matrilysin = biological target: T1, Matrilysin (Homo sapiens, UniProt P09237)
T1 sequence (P09237 whole entry): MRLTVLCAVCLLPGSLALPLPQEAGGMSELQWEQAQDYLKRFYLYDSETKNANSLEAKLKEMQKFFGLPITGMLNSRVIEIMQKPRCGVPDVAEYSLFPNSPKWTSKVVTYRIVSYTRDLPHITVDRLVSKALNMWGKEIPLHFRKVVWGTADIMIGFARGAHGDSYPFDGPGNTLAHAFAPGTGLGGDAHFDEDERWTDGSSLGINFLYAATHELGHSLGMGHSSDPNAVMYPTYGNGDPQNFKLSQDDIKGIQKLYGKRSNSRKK

Sequence of 72 kDa type IV collagenase (P08253 whole entry): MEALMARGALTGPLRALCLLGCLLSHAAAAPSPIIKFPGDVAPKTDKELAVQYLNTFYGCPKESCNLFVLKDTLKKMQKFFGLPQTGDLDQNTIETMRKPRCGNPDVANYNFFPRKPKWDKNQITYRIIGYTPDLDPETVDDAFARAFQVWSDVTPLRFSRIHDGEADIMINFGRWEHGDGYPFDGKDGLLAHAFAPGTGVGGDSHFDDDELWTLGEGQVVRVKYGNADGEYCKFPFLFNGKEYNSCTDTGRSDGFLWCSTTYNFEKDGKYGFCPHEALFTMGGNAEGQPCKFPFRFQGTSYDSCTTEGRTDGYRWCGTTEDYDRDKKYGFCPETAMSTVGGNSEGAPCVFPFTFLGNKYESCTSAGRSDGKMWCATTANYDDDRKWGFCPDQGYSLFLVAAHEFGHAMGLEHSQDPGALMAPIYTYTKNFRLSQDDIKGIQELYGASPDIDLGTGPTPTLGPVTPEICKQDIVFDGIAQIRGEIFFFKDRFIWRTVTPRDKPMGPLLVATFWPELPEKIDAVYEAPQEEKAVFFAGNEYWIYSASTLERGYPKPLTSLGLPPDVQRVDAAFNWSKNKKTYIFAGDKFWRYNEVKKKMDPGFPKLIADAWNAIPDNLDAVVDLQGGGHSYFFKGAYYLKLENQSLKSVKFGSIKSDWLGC
Sequence of Macrophage metalloelastase (P39900 whole entry): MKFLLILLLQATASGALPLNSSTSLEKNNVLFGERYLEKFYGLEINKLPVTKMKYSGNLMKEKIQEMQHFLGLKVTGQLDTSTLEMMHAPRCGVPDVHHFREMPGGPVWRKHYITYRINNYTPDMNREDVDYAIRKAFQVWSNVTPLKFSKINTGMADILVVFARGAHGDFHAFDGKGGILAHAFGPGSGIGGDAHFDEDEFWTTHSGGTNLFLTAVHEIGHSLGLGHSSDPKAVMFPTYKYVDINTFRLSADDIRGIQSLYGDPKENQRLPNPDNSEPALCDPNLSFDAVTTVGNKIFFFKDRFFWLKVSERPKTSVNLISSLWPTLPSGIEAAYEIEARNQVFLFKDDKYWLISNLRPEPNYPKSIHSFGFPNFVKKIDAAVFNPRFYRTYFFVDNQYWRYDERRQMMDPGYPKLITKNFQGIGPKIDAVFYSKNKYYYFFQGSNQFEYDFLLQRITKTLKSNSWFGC

Row | SMILES | IC50 [2] | IC50 [3] | IC50 (Matrilysin) | Ratio IC50 (Homo sapiens) | IC50 (Collagenase 3) | IC50 [1]
1 | CSCC[C@H](NC(=O)[C@H](CC(C)C)NC(=O)[C@H](C)NC(=O)[C@H](CC(=O)O)NC(=O)[C@H](CC(N)=O)NC(=O)CCCCS(=O)(=O)c1ccc(Oc2ccccc2)cc1)C(=O)N1CCC[C@H]1C(N)=O (X1-NDALMP-NH2) | – | – | – | 69 | 57 nM | 0.089 nM
2 | CSCC[C@H](NC(=O)[C@H](CC(C)C)NC(=O)[C@H](C)NC(=O)[C@H](CC(=O)O)NC(=O)[C@H](CC(N)=O)NC(=O)CCCNS(=O)(=O)c1ccc(Oc2ccccc2)cc1)C(=O)N1CCC[C@H]1C(N)=O ({Benzenesulfonyl(4-OPh)-GABA}-NDALMP-NH2) | – | – | – | 145 | 55 nM | 0.083 nM
3 | CC[C@H](C)[C@@H](C(=O)N1CCC[C@H]1C(N)=O)N(C)C(=O)[C@H](CC(C)C)NC(=O)[C@H](C)NC(=O)[C@H](CC(=O)O)NC(=O)[C@H](CC(N)=O)NC(=O)CCCNS(=O)(=O)c1ccc(Oc2ccccc2)cc1 ({Benzenesulfonyl(4-OPh)-GABA}-NDAL[NMeI]P-NH2) | – | – | – | 186 | 16 nM | 0.097 nM
4 | CC(C)C[C@H](NC(=O)[C@H](C)NC(=O)[C@H](CC(=O)O)NC(=O)[C@H](CC(N)=O)NC(=O)CCCNS(=O)(=O)c1ccc(Oc2ccccc2)cc1)C(=O)N(C)[C@@H](CC(C)C)C(=O)N1CCC[C@H]1C(N)=O ({Benzenesulfonyl(4-OPh)-GABA}-NDAL[NMeL]P-NH2) | – | – | – | 62 | 9.2 nM | 0.066 nM
5 | CC(C)C[C@H](NC(=O)[C@H](C)NC(=O)[C@H](CC(=O)O)NC(=O)[C@H](CC(N)=O)NC(=O)CCCNS(=O)(=O)c1ccc(Oc2ccccc2)cc1)C(=O)N(C)[C@@H](CC(C)C)C(=O)N1CCC[C@H]1CC(N)=O ({Benzenesulfonyl(4-OPh)-GABA}-NDAL[NMeL][β3hP]-NH2) | – | – | – | 24 | 15 nM | 0.055 nM
6 | CSCC[C@@H](C(=O)N1CCC[C@H]1C(N)=O)N(C)C(=O)[C@H](CC(C)C)NC(=O)[C@H](C)NC(=O)[C@H](CC(=O)O)NC(=O)[C@H](CC(N)=O)NC(=O)CCCNS(=O)(=O)c1ccc(Oc2ccccc2)cc1 ({Benzenesulfonyl(4-OPh)-GABA}-NDAL[NMeM]P-NH2) | – | – | – | 57 | 7 nM | 0.128 nM
7 | CSCC[C@@H](C(=O)N1CCC[C@H]1CC(N)=O)N(C)C(=O)[C@H](CC(C)C)NC(=O)[C@H](C)NC(=O)[C@H](CC(=O)O)NC(=O)[C@H](CC(N)=O)NC(=O)CCCNS(=O)(=O)c1ccc(Oc2ccccc2)cc1 ({Benzenesulfonyl(4-OPh)-GABA}-NDAL[NMeM][β3hP]-NH2) | – | – | – | 43 | 5.8 nM | 0.044 nM
8 | CC(C)C[C@H](NC(=O)[C@H](C)NC(=O)[C@H](CC(=O)O)NC(=O)[C@H](CC(N)=O)NC(=O)CCCNS(=O)(=O)c1ccc(Oc2ccccc2)cc1)C(=O)N(C)[C@H](C(=O)N1CCC[C@H]1C(N)=O)C(C)C ({Benzenesulfonyl(4-OPh)-GABA}-NDAL[NMeV]P-NH2) | – | – | – | 282 | 21 nM | 0.078 nM
9 | CC(C)C[C@H](NC(=O)[C@H](C)NC(=O)[C@H](CC(=O)O)NC(=O)[C@H](CC(N)=O)NC(=O)CCCNS(=O)(=O)c1ccc(Oc2ccccc2)cc1)C(=O)N(C)[C@H](C(=O)N1CCC[C@H]1CC(N)=O)C(C)C ({Benzenesulfonyl(4-OPh)-GABA}-NDAL[NMeV][β3hP]-NH2) | – | – | – | 122 | 25 nM | 0.046 nM
10 | CC[C@H](C)[C@@H](C(=O)N1CCC[C@H]1CC(N)=O)N(C)C(=O)[C@H](CC(C)C)NC(=O)[C@H](CCN)NC(=O)[C@H](CC(=O)O)NC(=O)[C@H](CC(N)=O)NC(=O)CCCNS(=O)(=O)c1ccc(Oc2ccccc2)cc1 ({Benzenesulfonyl(4-OPh)-GABA}-ND[Dab]L[NMeI][β3hP]-NH2) | – | – | – | 6010 | 443 nM | 0.09 nM
11 | CC[C@H](C)[C@@H](C(=O)N1CCC[C@H]1CC(N)=O)N(C)C(=O)[C@H](CC(C)C)NC(=O)[C@H](CN)NC(=O)[C@H](CC(=O)O)NC(=O)[C@H](CC(N)=O)NC(=O)CCCNS(=O)(=O)c1ccc(Oc2ccccc2)cc1 ({Benzenesulfonyl(4-OPh)-GABA}-ND[Dap]L[NMeI][β3hP]-NH2) | – | – | – | 977 | 274 nM | 0.13 nM
12 | CC[C@H](C)[C@@H](C(=O)N1CCC[C@H]1CC(N)=O)N(C)C(=O)[C@H](CC(C)C)NC(=O)[C@H](CCCN)NC(=O)[C@H](CC(=O)O)NC(=O)[C@H](CC(N)=O)NC(=O)CCCNS(=O)(=O)c1ccc(Oc2ccccc2)cc1 ({Benzenesulfonyl(4-OPh)-GABA}-ND[Orn]L[NMeI][β3hP]-NH2) | – | – | – | 189 | 134 nM | 0.61 nM
13 | CSCC[C@H](NC(=O)[C@H](CC(C)C)NC(=O)[C@H](C)NC(=O)[C@H](CC(=O)O)NC(=O)[C@H](CC(N)=O)NC(=O)CCNS(=O)(=O)c1ccc(Oc2ccccc2)cc1)C(=O)N1CCC[C@H]1C(N)=O ({Benzenesulfonyl(4-OPh)-βAla}-NDALMP-NH2) | – | – | – | 51 | 114 nM | 0.49 nM
14 | CSCC[C@H](NC(=O)[C@H](CC(C)C)NC(=O)[C@H](C)NC(=O)[C@H](CC(=O)O)NC(=O)[C@H](CC(N)=O)NC(=O)CNS(=O)(=O)c1ccc(Oc2ccccc2)cc1)C(=O)N1CCC[C@H]1C(N)=O ({Benzenesulfonyl(4-OPh)}-GNDALMP-NH2) | 916 nM | – | – | 13 | 6470 nM | 69 nM
15 | CSCC[C@H](NC(=O)[C@H](CC(C)C)NC(=O)[C@H](C)NC(=O)[C@H](CC(=O)O)NC(=O)[C@H](CC(N)=O)NC(=O)CCCCNS(=O)(=O)c1ccc(-c2ccccc2)cc1)C(=O)N1CCC[C@H]1C(N)=O ({Benzenesulfonyl(4-Ph)-Ava}-NDALMP-NH2) | – | – | – | 12 | 1710 nM | 2.9 nM
16 | CSCC[C@H](NC(=O)[C@H](CC(C)C)NC(=O)[C@H](C)NC(=O)[C@H](CC(=O)O)NC(=O)[C@H](CC(N)=O)NC(=O)CCCNS(=O)(=O)c1ccc(-c2ccccc2)cc1)C(=O)N1CCC[C@H]1C(N)=O ({Benzenesulfonyl(4-Ph)-GABA}-NDALMP-NH2) | – | – | – | 5 | 1120 nM | 9.2 nM
17 | CSCC[C@H](NC(=O)[C@H](CC(C)C)NC(=O)[C@H](C)NC(=O)[C@H](CC(=O)O)NC(=O)[C@H](CC(N)=O)NC(=O)CCNS(=O)(=O)c1ccc(-c2ccccc2)cc1)C(=O)N1CCC[C@H]1C(N)=O ({Benzenesulfonyl(4-Ph)-βAla}-NDALMP-NH2) | – | – | – | 18 | 1730 nM | 6.3 nM
18 | CSCC[C@H](NC(=O)[C@H](CC(C)C)NC(=O)[C@H](C)NC(=O)[C@H](CC(=O)O)NC(=O)[C@H](CC(N)=O)NC(=O)CNS(=O)(=O)c1ccc(-c2ccccc2)cc1)C(=O)N1CCC[C@H]1C(N)=O ({Benzenesulfonyl(4-Ph)}-GNDALMP-NH2) | 4170 nM | – | – | – | > 10000 nM | > 100 nM
19 | CC(C)C[C@H](NC(=O)[C@H](CCN)NC(=O)[C@H](CC(=O)O)NC(=O)[C@H](CC(N)=O)NC(=O)CCCCCNC(=O)c1ccc(Oc2ccc(C(N)=O)cc2)cc1)C(=O)N(C)[C@@H](CCC(=O)O)C(=O)N1CCC[C@H]1CC(N)=O ({Benzoyl(4-OPh(4-CONH2))-Ahx}-ND[Dab]L[NMeE][β3hP]-NH2) | – | – | – | 15600 | 192 nM | 0.13 nM
20 | CC(C)C[C@H](NC(=O)[C@H](CCN)NC(=O)[C@H](CC(=O)O)NC(=O)[C@H](CC(N)=O)NC(=O)CCCNC(=O)c1ccc(Oc2ccc(C(N)=O)cc2)cc1)C(=O)N(C)[C@@H](CCC(=O)O)C(=O)N1CCC[C@H]1CC(N)=O ({Benzoyl(4-OPh(4-CONH2))-GABA}-ND[Dab]L[NMeE][β3hP]-NH2) | – | – | – | 23100 | 540 nM | 0.17 nM
21 | CC(C)C[C@H](NC(=O)[C@H](CCN)NC(=O)[C@H](CC(=O)O)NC(=O)[C@H](CC(N)=O)NC(=O)CCNC(=O)c1ccc(Oc2ccc(C(N)=O)cc2)cc1)C(=O)N(C)[C@@H](CCC(=O)O)C(=O)N1CCC[C@H]1CC(N)=O ({Benzoyl(4-OPh(4-CONH2))-βAla}-ND[Dab]L[NMeE][β3hP]-NH2) | – | – | – | 8390 | 146 nM | 0.53 nM
22 | CC(C)C[C@H](NC(=O)[C@H](CCN)NC(=O)[C@H](CC(=O)O)NC(=O)[C@H](CC(N)=O)NC(=O)CCCNC(=O)c1ccc(Oc2ccccc2)cc1)C(=O)N(C)[C@@H](CCC(=O)O)C(=O)N1CCC[C@H]1CC(N)=O ({Benzoyl(4-OPh)-GABA}-ND[Dab]L[NMeE][β3hP]-NH2) | – | – | – | 27200 | 2000 nM | –
23 | CC(C)C[C@H](NC(=O)[C@H](CCN)NC(=O)[C@H](CC(=O)O)NC(=O)[C@H](CC(N)=O)NC(=O)CCCNC(=O)c1ccc(Oc2ccc(F)cc2)cc1)C(=O)N(C)[C@@H](CCC(=O)O)C(=O)N1CCC[C@H]1CC(N)=O ({X2-GABA}-ND[Dab]L[NMeE][β3hP]-NH2) | – | – | – | 40700 | 1290 nM | 0.11 nM
24 | CNC(=O)[C@H](Cc1c[nH]c2ccccc12)NC(=O)[C@@H](CC(=O)NO)CC(C)C [ILOMASTAT] | 0.46 nM | 1.1 nM | 5.1 nM | – | 0.28 nM | –
